Test results reported in ChEMBL document CHEMBL1649307, “Development, validation, and routine application of a high-performance liquid chromatography method coupled with a single mass detector for quantification of itraconazole, voriconazole, and posaconazole in human plasma” (Antimicrob Agents Chemother, 2010).

Tests used:
Type in all cases: ADME, organism-based
Conditions in all cases: in vivo
[1] = tested on: Plasma; test: Metabolic stability in healthy human plasma assessed as compound recovery at 3 mg/kg QD; parameters: dose 3 mg/kg
[2] = tested on: Plasma; test: Metabolic stability in healthy human plasma assessed as compound recovery at 6 mg/kg BID; parameters: dose 6 mg/kg
[3] = tested on: Plasma; test: Metabolic stability in healthy human plasma assessed as compound recovery at 7 mg/kg BID; parameters: dose 7 mg/kg

In the case of `CCC(C)n1ncn(-c2ccc(N3CCN(c4ccc(OCC5COC(Cn6cncn6)(c6ccc(Cl)cc6Cl)O5)cc4)CC3)cc2)c1=O` (stereo not drawn) [ITRACONAZOLE], the Stability [1] was 114.5%.
In the case of `CC[C@@H]([C@H](C)O)n1ncn(-c2ccc(N3CCN(c4ccc(OC[C@@H]5CO[C@@](Cn6cncn6)(c6ccc(F)cc6F)C5)cc4)CC3)cc2)c1=O` [POSACONAZOLE], the Stability [2] was 85.5%.
`C[C@@H](c1ncncc1F)[C@](O)(Cn1cncn1)c1ccc(F)cc1F` [VORICONAZOLE] showed a Stability [3] of 97.2%.
